How the values were obtained:
[1] = biological target: T1, Tyrosine-protein kinase Fyn (Homo sapiens, UniProt P06241); test: Inhibition of Fyn A (unknown origin) at 0.5 uM preincubated for 10 mins followed by substrate addition and measured after 1 hr by ADP-Glo luminescence assay relative to control
Target sequence in this assay (P06241 2-537 limits assumed): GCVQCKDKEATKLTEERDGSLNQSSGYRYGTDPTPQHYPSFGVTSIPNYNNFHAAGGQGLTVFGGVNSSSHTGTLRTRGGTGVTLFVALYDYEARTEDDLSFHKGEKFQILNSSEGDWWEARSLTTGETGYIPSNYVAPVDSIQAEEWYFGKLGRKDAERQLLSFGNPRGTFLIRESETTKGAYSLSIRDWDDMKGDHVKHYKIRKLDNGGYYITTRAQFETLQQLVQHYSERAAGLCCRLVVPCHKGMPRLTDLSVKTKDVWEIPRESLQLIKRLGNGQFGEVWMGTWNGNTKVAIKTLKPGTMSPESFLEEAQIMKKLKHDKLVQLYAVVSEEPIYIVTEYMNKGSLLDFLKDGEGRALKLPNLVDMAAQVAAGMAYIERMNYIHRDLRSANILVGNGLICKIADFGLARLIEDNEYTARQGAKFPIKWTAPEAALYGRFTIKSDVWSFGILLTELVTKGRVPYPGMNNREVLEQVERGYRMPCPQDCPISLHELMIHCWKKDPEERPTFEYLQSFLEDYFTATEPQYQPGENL

[2] = system: HCT-116; test: cells; settings: Homo sapiens, HCT-116, 72 h
Description: Antiproliferative activity against p53+/+ human HCT116 cells after 72 hrs by CellTiter 96 aqueous one solution assay

[3] = system: HCT-116; test: cells; settings: Homo sapiens, HCT-116, 72 h; remark: listed apart in the source
Description: Antiproliferative activity against p53-/- human HCT116 cells after 72 hrs by CellTiter 96 aqueous one solution assay

[4] = system: MCF7; test: cells; settings: Homo sapiens, MCF7, 72 h
Description: Antiproliferative activity against human MCF7 cells after 72 hrs by CellTiter 96 aqueous one solution assay

[5] = system: A549; test: cells; settings: Homo sapiens, A549, 72 h
Description: Antiproliferative activity against human A549 cells after 72 hrs by CellTiter 96 aqueous one solution assay

[6] = system: NHDF; test: cells; settings: Homo sapiens, 72 h
Description: Antiproliferative activity against human NHDF cells after 72 hrs by CellTiter 96 aqueous one solution assay

[7] = biological target: T2, Tyrosine-protein kinase BTK (Homo sapiens, UniProt Q06187); test: Inhibition of BTK (unknown origin) preincubated for 10 mins followed by substrate addition and measured after 1 hr by ADP-Glo luminescence assay
[8] = biological target: T1, Tyrosine-protein kinase Fyn; test: Inhibition of Fyn A (unknown origin) preincubated for 10 mins followed by substrate addition and measured after 1 hr by ADP-Glo luminescence assay
[9] = biological target: T3, Receptor tyrosine-protein kinase erbB-4 (Homo sapiens, UniProt Q15303); test: Inhibition of human wild type ERBB4 (L690 to K994 residues) expressed in bacterial expression system at 5 uM relative to control
[10] = biological target: Tyrosine-protein kinase ABL1 (Homo sapiens) (UniProt P00519); settings: at 0.5 µM
Description: Inhibition of ABL1 (unknown origin) at 0.5 uM preincubated for 10 mins followed by substrate addition and measured after 1 hr by ADP-Glo luminescence assay relative to control

[11] = biological target: T3, Receptor tyrosine-protein kinase erbB-4; test: Inhibition of human ERBB4 using poly[Glu:Tyr] (4:1) as substrate by [gamma-33P]-ATP assay
[12] = biological target: T4, Tyrosine-protein kinase Lyn (Homo sapiens, UniProt P07948); test: Inhibition of human LYN-B using poly[Glu:Tyr] (4:1) as substrate by [gamma-33P]-ATP assay
[13] = biological target: Calcium/calmodulin-dependent protein kinase type 1G (Homo sapiens, UniProt Q96NX5); test: Inhibition of human CAMK1G using KKALRRQETVDAL as substrate by [gamma-33P]-ATP assay
[14] = biological target: T2, Tyrosine-protein kinase BTK; test: Inhibition of human BTK using KVEKIGEGTYGVVYK as substrate by [gamma-33P]-ATP assay
[15] = biological target: Tyrosine-protein kinase CSK (Homo sapiens, UniProt P41240); test: Inhibition of human CSK using poly[Glu:Tyr] (4:1) as substrate by [gamma-33P]-ATP assay
[16] = biological target: Tyrosine-protein kinase ABL1 (Homo sapiens) (UniProt P00519); test: Inhibition of human ABL1 at 20 uM using EAIYAAPFAKKK as substrate by [gamma-33P]-ATP assay relative to control
[17] = biological target: Tyrosine-protein kinase Lck (Homo sapiens) (UniProt P06239); test: Inhibition of human LCK at 20 uM using poly[Glu:Tyr] (4:1) as substrate by [gamma-33P]-ATP assay relative to control
[18] = biological target: T1, Tyrosine-protein kinase Fyn; test: Inhibition of human FYN at 20 uM using poly[Glu:Tyr] (4:1) as substrate by [gamma-33P]-ATP assay relative to control
Target sequence in this assay (P06241 2-537 limits assumed): as above

[19] = biological target: T4, Tyrosine-protein kinase Lyn; test: Inhibition of human LYN at 20 uM using poly[Glu:Tyr] (4:1) as substrate by [gamma-33P]-ATP assay relative to control
Target sequence in this assay (P07948 2-512 limits assumed): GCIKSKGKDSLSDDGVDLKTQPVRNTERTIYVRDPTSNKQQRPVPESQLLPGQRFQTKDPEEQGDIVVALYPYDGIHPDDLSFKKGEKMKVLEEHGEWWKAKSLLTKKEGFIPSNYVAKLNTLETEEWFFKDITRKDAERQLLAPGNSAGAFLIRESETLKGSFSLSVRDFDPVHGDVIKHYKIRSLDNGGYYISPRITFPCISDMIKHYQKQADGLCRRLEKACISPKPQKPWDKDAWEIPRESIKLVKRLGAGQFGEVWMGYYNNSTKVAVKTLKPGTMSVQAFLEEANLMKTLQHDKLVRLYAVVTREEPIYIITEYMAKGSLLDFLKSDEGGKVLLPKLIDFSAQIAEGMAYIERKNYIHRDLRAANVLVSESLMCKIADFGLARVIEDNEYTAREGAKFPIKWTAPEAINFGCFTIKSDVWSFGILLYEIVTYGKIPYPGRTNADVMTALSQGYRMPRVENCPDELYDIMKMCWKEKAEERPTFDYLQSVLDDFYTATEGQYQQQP

[20] = biological target: Nociceptin receptor (Homo sapiens, UniProt P41146); test: Displacement of [3H]-nociceptin from human nociceptin receptor expressed in cell membranes after 60 mins by liquid scintillation counting analysis
Nociceptin receptor, sequence (P41146 whole entry): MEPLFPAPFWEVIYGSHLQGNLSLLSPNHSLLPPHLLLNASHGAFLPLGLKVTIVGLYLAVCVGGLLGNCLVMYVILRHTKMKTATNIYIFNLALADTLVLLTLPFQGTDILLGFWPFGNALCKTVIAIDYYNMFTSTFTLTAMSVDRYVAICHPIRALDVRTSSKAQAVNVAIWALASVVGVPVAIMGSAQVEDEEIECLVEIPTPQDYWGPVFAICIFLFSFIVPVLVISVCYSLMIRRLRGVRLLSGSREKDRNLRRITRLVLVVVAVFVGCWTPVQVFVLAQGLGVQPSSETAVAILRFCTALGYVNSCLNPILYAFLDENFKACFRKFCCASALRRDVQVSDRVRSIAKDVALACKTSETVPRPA

T2 sequence (Q06187 whole entry): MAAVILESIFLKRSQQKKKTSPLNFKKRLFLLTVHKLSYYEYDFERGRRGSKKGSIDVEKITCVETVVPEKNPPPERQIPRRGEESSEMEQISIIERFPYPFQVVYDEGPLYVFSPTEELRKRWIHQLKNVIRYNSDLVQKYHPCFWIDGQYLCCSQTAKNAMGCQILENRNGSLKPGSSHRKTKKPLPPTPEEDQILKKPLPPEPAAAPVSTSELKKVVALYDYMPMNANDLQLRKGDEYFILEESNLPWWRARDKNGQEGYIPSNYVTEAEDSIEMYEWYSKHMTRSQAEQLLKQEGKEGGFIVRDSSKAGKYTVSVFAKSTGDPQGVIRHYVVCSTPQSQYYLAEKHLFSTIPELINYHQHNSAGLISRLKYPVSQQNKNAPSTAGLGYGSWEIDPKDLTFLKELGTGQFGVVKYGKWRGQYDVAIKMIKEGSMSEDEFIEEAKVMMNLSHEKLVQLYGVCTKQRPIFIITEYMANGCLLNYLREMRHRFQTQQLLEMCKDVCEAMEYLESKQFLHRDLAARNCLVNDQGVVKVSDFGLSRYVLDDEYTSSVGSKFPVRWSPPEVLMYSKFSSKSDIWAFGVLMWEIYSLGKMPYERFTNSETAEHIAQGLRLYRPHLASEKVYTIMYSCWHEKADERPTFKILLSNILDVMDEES
T3 sequence (Q15303 whole entry, the tested form may be a part): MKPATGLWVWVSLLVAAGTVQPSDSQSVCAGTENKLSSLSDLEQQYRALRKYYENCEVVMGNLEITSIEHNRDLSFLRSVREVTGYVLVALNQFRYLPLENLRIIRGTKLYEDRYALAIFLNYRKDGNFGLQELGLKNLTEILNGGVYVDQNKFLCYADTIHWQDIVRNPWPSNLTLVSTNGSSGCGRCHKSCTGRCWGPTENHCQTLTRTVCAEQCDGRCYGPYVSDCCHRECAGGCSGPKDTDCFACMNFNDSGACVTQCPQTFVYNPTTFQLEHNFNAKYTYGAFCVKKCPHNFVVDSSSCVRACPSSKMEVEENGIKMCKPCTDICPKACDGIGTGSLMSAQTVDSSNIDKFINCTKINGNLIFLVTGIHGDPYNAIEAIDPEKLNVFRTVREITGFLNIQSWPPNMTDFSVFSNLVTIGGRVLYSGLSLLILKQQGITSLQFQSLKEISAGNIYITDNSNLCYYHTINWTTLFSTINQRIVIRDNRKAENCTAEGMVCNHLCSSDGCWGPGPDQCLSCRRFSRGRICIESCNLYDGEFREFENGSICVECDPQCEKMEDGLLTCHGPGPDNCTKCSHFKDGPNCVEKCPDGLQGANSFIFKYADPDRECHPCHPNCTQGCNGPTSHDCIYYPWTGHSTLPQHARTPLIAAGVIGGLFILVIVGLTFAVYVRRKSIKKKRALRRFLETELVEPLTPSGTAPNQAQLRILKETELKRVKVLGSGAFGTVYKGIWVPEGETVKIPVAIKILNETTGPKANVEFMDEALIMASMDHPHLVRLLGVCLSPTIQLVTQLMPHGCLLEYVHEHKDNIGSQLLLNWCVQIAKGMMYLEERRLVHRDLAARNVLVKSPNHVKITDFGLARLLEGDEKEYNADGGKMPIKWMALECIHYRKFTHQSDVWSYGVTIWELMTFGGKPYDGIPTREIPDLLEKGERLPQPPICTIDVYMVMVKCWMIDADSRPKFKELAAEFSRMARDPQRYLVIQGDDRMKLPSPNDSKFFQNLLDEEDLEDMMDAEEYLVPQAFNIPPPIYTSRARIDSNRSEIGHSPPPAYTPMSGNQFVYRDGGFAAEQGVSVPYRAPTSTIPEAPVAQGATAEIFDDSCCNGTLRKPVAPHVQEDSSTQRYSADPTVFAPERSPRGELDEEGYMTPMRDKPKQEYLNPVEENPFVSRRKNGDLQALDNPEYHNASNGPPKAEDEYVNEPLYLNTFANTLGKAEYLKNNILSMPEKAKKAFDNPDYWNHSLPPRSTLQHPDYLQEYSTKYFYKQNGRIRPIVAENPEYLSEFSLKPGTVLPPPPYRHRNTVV
Tyrosine-protein kinase ABL1 (Homo sapiens), sequence (P00519 whole entry): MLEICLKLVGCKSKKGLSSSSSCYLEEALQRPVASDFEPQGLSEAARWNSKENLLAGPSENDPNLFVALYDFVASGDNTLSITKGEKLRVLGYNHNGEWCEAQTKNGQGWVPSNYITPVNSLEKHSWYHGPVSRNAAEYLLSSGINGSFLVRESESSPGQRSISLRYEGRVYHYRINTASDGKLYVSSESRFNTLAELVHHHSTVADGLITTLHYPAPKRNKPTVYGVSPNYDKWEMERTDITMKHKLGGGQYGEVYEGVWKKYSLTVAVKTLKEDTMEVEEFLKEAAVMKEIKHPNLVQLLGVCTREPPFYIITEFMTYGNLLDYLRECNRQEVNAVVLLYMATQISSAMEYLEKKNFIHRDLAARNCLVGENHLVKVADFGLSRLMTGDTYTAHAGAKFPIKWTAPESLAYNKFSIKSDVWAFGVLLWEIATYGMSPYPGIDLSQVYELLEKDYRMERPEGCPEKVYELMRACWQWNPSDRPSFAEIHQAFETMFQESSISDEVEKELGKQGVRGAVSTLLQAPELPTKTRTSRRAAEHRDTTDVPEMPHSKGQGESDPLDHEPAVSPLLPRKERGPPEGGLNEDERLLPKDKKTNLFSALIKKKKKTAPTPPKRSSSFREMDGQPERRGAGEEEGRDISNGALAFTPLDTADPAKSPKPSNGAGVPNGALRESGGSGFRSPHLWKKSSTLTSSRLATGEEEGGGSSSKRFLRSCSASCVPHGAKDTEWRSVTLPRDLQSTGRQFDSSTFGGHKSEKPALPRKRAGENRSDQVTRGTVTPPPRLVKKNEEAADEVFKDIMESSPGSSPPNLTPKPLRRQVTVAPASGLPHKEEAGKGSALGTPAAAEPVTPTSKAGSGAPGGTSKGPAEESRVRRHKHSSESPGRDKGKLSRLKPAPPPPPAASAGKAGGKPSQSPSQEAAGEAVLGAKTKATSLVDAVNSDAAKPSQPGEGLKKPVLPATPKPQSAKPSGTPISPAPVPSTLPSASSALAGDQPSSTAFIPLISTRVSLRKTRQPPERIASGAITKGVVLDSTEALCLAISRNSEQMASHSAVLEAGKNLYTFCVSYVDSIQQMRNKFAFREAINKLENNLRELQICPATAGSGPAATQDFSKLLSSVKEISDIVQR
Tyrosine-protein kinase Lck (Homo sapiens), sequence (P06239 2-509 limits assumed): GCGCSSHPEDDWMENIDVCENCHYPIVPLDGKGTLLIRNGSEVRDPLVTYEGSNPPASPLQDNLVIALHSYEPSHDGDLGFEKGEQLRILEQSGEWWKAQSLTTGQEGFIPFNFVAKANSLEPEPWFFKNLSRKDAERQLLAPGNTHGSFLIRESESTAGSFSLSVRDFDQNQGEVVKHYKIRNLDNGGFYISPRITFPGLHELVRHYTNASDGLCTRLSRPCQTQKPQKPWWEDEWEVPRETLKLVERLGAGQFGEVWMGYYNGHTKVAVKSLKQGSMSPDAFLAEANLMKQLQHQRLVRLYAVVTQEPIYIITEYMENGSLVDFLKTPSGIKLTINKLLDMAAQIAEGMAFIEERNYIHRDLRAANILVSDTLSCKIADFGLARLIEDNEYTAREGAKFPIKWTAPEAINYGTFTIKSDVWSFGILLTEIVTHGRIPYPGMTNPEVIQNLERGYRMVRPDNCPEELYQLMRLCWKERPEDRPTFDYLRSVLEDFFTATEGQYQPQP

Oc1ccc(Nc2nc(/C=C/c3cccc(Cl)c3)nc3ccccc23)cc1
inhibition [1]: 0%
IC50 [2]: 21.9 µM
IC50 [3]: 22.7 µM
IC50 [4]: 9.19 µM
IC50 [5]: 14.8 µM
IC50 [6]: 14.2 µM

COc1ccc(/C=C/c2nc3ccccc3c(=O)[nH]2)cc1
inhibition [1]: 2%
IC50 [2]: > 25 µM
IC50 [3]: > 25 µM
IC50 [4]: > 25 µM
IC50 [5]: > 25 µM

Oc1cccc(Nc2nc(/C=C/c3cc4c(cc3Br)OCO4)nc3ccccc23)c1
inhibition [1]: 0%
IC50 [7]: 0.287 µM
IC50 [2]: 4.38 µM
IC50 [3]: 5.03 µM
IC50 [4]: 4.38 µM
IC50 [5]: 7.41 µM
IC50 [6]: 4.59 µM

COc1ccccc1/C=C/c1nc(Nc2cccc(O)c2)c2ccccc2n1
inhibition [1]: 0%
IC50 [2]: 21.7 µM
IC50 [3]: 16.4 µM
IC50 [4]: 11.2 µM
IC50 [5]: 16.6 µM
IC50 [6]: 17.5 µM

CC(=O)Oc1ccccc1/C=C/c1nc(Nc2ccccc2I)c2ccccc2n1
inhibition [1]: 24%
IC50 [2]: > 25 µM
IC50 [3]: > 25 µM
IC50 [4]: 15.6 µM
IC50 [5]: 16.4 µM
IC50 [6]: 23.2 µM

O=c1[nH]c(/C=C/c2cccc3c2OCO3)nc2ccccc12
inhibition [1]: 40%
IC50 [2]: > 25 µM
IC50 [3]: > 25 µM

COc1ccccc1/C=C/c1nc(Nc2ccc3c(c2)OCO3)c2ccccc2n1
inhibition [1]: 90%
IC50 [7]: 0.237 µM
IC50 [8]: 0.191 µM
IC50 [2]: 15.9 µM
IC50 [3]: 13.7 µM
IC50 [4]: 4.86 µM
IC50 [5]: 9.88 µM
IC50 [6]: 7.72 µM

Cc1nc(Nc2ncc(C(=O)Nc3c(C)cccc3Cl)s2)cc(N2CCN(CCO)CC2)n1 [DASATINIB]
inhibition [1]: 92%
IC50 [2]: 3.58 µM
IC50 [4]: 1.11 µM
IC50 [5]: 23.7 µM
IC50 [6]: 0.71 µM

COc1ccccc1/C=C/c1nc(NCc2ccc3c(c2)OCO3)c2ccccc2n1
inhibition [1]: 1%
IC50 [2]: 10.8 µM
IC50 [3]: 13.3 µM
IC50 [4]: 10.8 µM
IC50 [5]: 11.6 µM
IC50 [6]: 14.4 µM

CCCCOc1ccc(/C=C/c2nc3ccccc3c(=O)[nH]2)cc1
inhibition [1]: 0%
IC50 [2]: > 25 µM
IC50 [3]: > 25 µM
IC50 [4]: > 25 µM
IC50 [5]: > 25 µM

CC(=O)Oc1cccc(/C=C/c2nc3ccccc3c(=O)[nH]2)c1
inhibition [1]: 0%
IC50 [2]: 15.3 µM
IC50 [3]: 9.29 µM
IC50 [4]: 6.37 µM
IC50 [5]: > 25 µM
IC50 [6]: > 25 µM

CCN(CC)CCCNc1nc(/C=C/c2ccc(OC)cc2)nc2ccc(Br)cc12
inhibition [9]: 0%

COc1ccccc1/C=C/c1nc(Nc2ccc(O)cc2)c2ccccc2n1
inhibition [1]: 0%
IC50 [2]: > 25 µM
IC50 [3]: 17.9 µM
IC50 [4]: 8.29 µM
IC50 [5]: 13 µM
IC50 [6]: 13.8 µM

COc1ccc(OC)c(Nc2nc(/C=C/c3ccccc3OC(C)=O)nc3ccccc23)c1
inhibition [1]: 63%
IC50 [2]: > 25 µM
IC50 [3]: > 25 µM
IC50 [4]: 7.84 µM
IC50 [5]: > 25 µM
IC50 [6]: > 25 µM

Cc1ccc(NC(=O)c2ccc(CN3CCN(C)CC3)cc2)cc1Nc1nccc(-c2cccnc2)n1 [IMATINIB]
inhibition [1]: 0%
IC50 [4]: > 25 µM
IC50 [5]: > 25 µM
IC50 [6]: > 25 µM

COc1ccccc1/C=C/c1nc(Nc2ccccc2Cl)c2ccccc2n1
inhibition [1]: 0%
IC50 [2]: > 25 µM
IC50 [3]: 16.1 µM
IC50 [4]: 18.9 µM
IC50 [5]: > 25 µM
IC50 [6]: > 25 µM

COc1ccc(Cl)c(Nc2ncnc3cc(OCC4CCN(C)CC4)c(OC)cc23)c1 [AZM-475271]
inhibition [1]: 76%
inhibition [10]: 8%
IC50 [2]: > 25 µM
IC50 [3]: > 25 µM
IC50 [4]: > 25 µM
IC50 [5]: > 25 µM
IC50 [6]: > 25 µM

CCN(CC)CCCC(C)Nc1nc(/C=C/c2cc(OC)c(OC)cc2Cl)nc2cc(Cl)ccc12 (centres undefined)
IC50 [11]: 7.74 µM
IC50 [12]: > 100 µM
IC50 [13]: 4.81 µM
IC50 [14]: 5.15 µM
IC50 [15]: 6.85 µM
inhibition [16]: 0%
inhibition [17]: 80%
inhibition [18]: 70%
inhibition [19]: 50%

CNC(=O)c1ccccc1Sc1ccc2c(/C=C/c3ccccn3)n[nH]c2c1
inhibition [1]: 44%

Oc1cccc(Nc2nc(/C=C/c3cccc(Cl)c3)nc3ccccc23)c1
inhibition [1]: 0%
IC50 [2]: > 25 µM
IC50 [3]: > 25 µM

O=c1[nH]c(/C=C/c2ccc([N+](=O)[O-])cc2)nc2ccccc12
inhibition [1]: 29%
IC50 [2]: > 25 µM
IC50 [3]: > 25 µM

O=c1[nH]c(/C=C/c2ccc3c(c2)OCO3)nc2ccccc12
inhibition [1]: 4%
IC50 [2]: > 25 µM
IC50 [3]: > 25 µM

CC(=O)Oc1ccc(/C=C/c2nc3ccccc3c(=O)[nH]2)c(OC(C)=O)c1
inhibition [1]: 19%
IC50 [2]: > 25 µM
IC50 [3]: 23 µM
IC50 [4]: > 25 µM
IC50 [5]: > 25 µM
IC50 [6]: > 25 µM

COc1ccc(/C=C/c2nc(Nc3cccc(O)c3)c3ccccc3n2)cc1
inhibition [1]: 0%
IC50 [2]: 22.9 µM
IC50 [3]: 22.9 µM
IC50 [4]: 14.7 µM
IC50 [5]: 20.8 µM
IC50 [6]: > 25 µM

O=[N+]([O-])c1cccc(/C=C/c2nc(Nc3cccc(O)c3)c3ccccc3n2)c1
inhibition [1]: 0%
IC50 [7]: 0.88 µM
IC50 [2]: 10.9 µM
IC50 [3]: 10.8 µM
IC50 [4]: 10.1 µM
IC50 [5]: 15.4 µM
IC50 [6]: 11.2 µM

CC(=O)Oc1ccccc1/C=C/c1nc2ccccc2c(=O)[nH]1
inhibition [1]: 0%
IC50 [2]: > 25 µM
IC50 [3]: 17.2 µM
IC50 [4]: > 25 µM
IC50 [5]: > 25 µM
IC50 [6]: > 25 µM

Cc1ccc2nc(/C=C/c3ccccn3)nc(N[C@H]3CC[C@@H](N)C[C@H]3C)c2c1
Ki [20]: 0.002 µM

O=c1[nH]c(/C=C/c2cccc([N+](=O)[O-])c2)nc2ccccc12
inhibition [1]: 0%
IC50 [2]: > 25 µM
IC50 [3]: > 25 µM

COc1ccccc1/C=C/c1nc2ccccc2c(=O)[nH]1
inhibition [1]: 0%
IC50 [7]: 0.456 µM
IC50 [2]: 2.47 µM
IC50 [3]: 1.46 µM
IC50 [4]: 4.45 µM
IC50 [5]: > 25 µM
IC50 [6]: > 25 µM

O=c1[nH]c(/C=C/c2c(Br)ccc3c2OCO3)nc2ccccc12
inhibition [1]: 61%
IC50 [2]: > 25 µM
IC50 [3]: > 25 µM
IC50 [4]: 12.8 µM
IC50 [5]: 13.8 µM
IC50 [6]: 14.8 µM

CCOc1ccccc1/C=C/c1nc2ccccc2c(=O)[nH]1
inhibition [1]: 0%
IC50 [2]: 23.3 µM
IC50 [3]: 6.43 µM
IC50 [4]: 6.26 µM
IC50 [5]: 21.8 µM
IC50 [6]: > 25 µM

COc1cccc(/C=C/c2nc3ccccc3c(=O)[nH]2)c1
inhibition [1]: 0%
IC50 [2]: > 25 µM
IC50 [3]: > 25 µM

COc1ccc(/C=C/c2nc(NCCCN(C)C)c3ccccc3n2)cc1
inhibition [1]: 31%
IC50 [4]: 27 µM
IC50 [5]: > 25 µM

CCOc1ccc(/C=C/c2nc3ccccc3c(=O)[nH]2)cc1
inhibition [1]: 0%
IC50 [2]: > 25 µM
IC50 [3]: > 25 µM

O=c1[nH]c(/C=C/c2cc3c(cc2Br)OCO3)nc2ccccc12
inhibition [1]: 0%
IC50 [2]: > 25 µM
IC50 [3]: > 25 µM
IC50 [4]: > 25 µM
IC50 [5]: > 25 µM

Reference: ChEMBL document CHEMBL4411283, “The p53 stabilizing agent CP-31398 and multi-kinase inhibitors. Designing, synthesizing and screening of styrylquinazoline series” (Eur J Med Chem, 2019)
